Measurements reported in patent publication US6784201B2, “Benzothiepines having activity as inhibitors of ileal bile acid transport and taurocholate uptake” (G.D. Searle & Company, priority 1994, dated 2004).
Like-named read-outs stand apart in the source and are kept apart here.

Columns and labels:
human IBAT = biological target: T1, human IBAT (Homo sapiens, UniProt Q12908); assay: In vitro assay of IBAT-mediated uptake of [14C]-taurocholate (TC) in H14 cells; assay type: cell-based
T1 construct: expressed in transfected cells; host or cells: Baby hamster kidney (BHK) cells, clone H14
T1 sequence (Q12908 1-348): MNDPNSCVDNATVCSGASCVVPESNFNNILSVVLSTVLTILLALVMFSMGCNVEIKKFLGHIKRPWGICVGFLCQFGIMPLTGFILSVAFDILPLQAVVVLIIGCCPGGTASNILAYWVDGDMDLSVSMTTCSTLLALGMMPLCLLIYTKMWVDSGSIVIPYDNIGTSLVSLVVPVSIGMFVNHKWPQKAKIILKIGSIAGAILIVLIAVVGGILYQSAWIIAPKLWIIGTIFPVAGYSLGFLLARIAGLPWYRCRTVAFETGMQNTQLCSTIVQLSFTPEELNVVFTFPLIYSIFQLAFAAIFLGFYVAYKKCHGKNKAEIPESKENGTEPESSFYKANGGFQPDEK
Procedure, shortened: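 BHK cells stably expressing human IBAT (H14) were incubated 2 h at 37° C with compound and 3 μM final [14C]-taurocholate in DMEM (4.5 g/L glucose) plus 0.2% fatty acid-free BSA. After cold PBS washes, cell-associated radioactivity was measured by scintillation counting.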

H14 cells = assay: In vitro assay of uptake of [14C]-alanine; assay type: cell-based, hamster; conditions: Mesocricetus auratus
Experimental: Baby hamster kidney cells (BHK) transfected with the cDNA of human IBAT (H14 cells) are seeded at 60,000 cells/well in 96 well Top-Count tissue culture plates for assays run within in 24 hours of seeding, 30,000 cells/well for assays run within 48 hours, and 10,000 cells/well for assays run within 72 hours.
On the day of assay, the cell monolayer is gently washed once with 100 μl assay buffer (Dulbecco's Modified Eagle's medium with 4.5 g/L glucose+0.2% (w/v) fatty acid free bovine serum albumin-(FAF)BSA). To each well 50 μl of a two-fold concentrate of test compound in assay buffer is added along with 50 μl of 6 μM [^14C]-taurocholate in assay buffer (final concentration of 3 μM [^14C]-taurocholate). The cell culture plates are incubated 2 hours at 37° C. prior to gently washing each well twice with 100 μl 4° C. Dulbecco's phosphate-buffered saline (PBS) containing 0.2% (w/v) (FAF)BSA. The wells are then gently washed once with 100 μl 4° C. PBS without (FAF)BSA. To each 200 μl of liquid scintillation counting fluid is added, the plates are heat sealed and shaken for 30 minutes at room temperature prior to measuring the amount of radioactivity in each well on a Packard Top-Count instrument.
In Vitro Assay of Compounds that Inhibit Uptake of [^14C3-Alanine
The alanine uptake assay is performed in an identical fashion to the taurocholate assay, with the exception that labeled alanine is substituted for the labeled taurocholate.

[1] = system: Rat Ileal Uptake of [14C]-Taurocholate; assay: In vivo assay of rat ileal uptake of [14C]-taurocholate into bile (ileal loop); conditions: for activity at 500 µM: 0.5 mM; for activity at 100 µM: read-out: % of Control Transport of TC in Rat Ileum @ 0.1 mM; for EC50: rat ileal loop, read-out: TC-uptake Ileal Loop EC(50)
Experimental: In Vivo Assay of Compounds that Inhibit Rat Ileal Uptake of [^14C]-Taurocholate into Bile
(See “Metabolism of 3α,7β-dihydroxy-7α-methyl-5β-cholanoic acid and 3α,7β-dihydroxy-7α-methyl-5β-cholanoic acid in hamsters” in Biochimica et Biophysica Acta 833 (1985) 196-202 by Une et al.)
Male wistar rats (200-300 g) are anesthetized with inactin @100 mg/kg. Bile ducts are cannulated with a 10″ length of PE10 tubing. The small intestine is exposed and laid out on a gauze pad. A canulae (⅛″ luer lock, tapered female adapter) is inserted at 12 cm from the junction of the small intestine and the cecum. A slit is cut at 4 cm from this same junction (utilizing a 8 cm length of ileum). 20 ml of warm Dulbecco's phosphate buffered saline, pH 6.5 (PBS) is used to flush out the intestine segment. The distal opening is cannulated with a 20 cm length of silicone tubing (0.02″ I.D.×0.037″ O.D.). The proximal cannulae is hooked up to a peristaltic pump and the intestine is washed for 20 min with warm PBS at 0.25 ml/min. Temperature of the gut segment is monitored continuously. At the start of the experiment, 2.0 ml of control sample ([^14C]-taurocholate @ 0.05 mi/ml with 5 mM cold taurocholate) is loaded into the gut segment with a 3 ml syringe and bile sample collection is begun. Control sample is infused at a rate of 0.25 ml/min for 21 min. Bile samples fractions are collected every 3 minute for the first 27 minutes of the procedure. After the 21 min of sample infusion, the ileal loop is washed out with 20 ml of warm PBS (using a 30 ml syringe), and then the loop is washed out for 21 min with warm PBS at 0.25 ml/min. A second perfusion is initiated as described above but this with test compound being administered as well (21 min administration followed by 21 min of wash out) and bile sampled every 3 min for the first 27 min. If necessary, a third perfusion is performed as above that typically contains the control sample.

[2] = system: Rabbit Ileal brush border membranes; assay: [3H]taurocholate uptake in rabbit brush border membrane vesicles (BBMV); assay type: biochemical; conditions: read-out: TC-uptake (BBMV) IC(50)
Experimental: [^3H]Taurocholate Uptake in Rabbit Brush Border Membrane Vesicles (BBMV)
Rabbit Ileal brush border membranes were prepared from frozen iheal mucosa by the calcium precipitation method describe by Malathi et al. (Reference: (1979) Biochimica Biophysica Acta, 554, 259). The method for measuring taurocholate was essentially as described by Kramer et al. (Reference: (1992) Biochimica Biophysica Acta, 1111, 93) except the assay volume was 200 μl instead of 100 μl.

ACAT = assay: Acyl-CoA; cholesterol acyl transferase (ACAT), hamster liver microsomes; assay type: biochemical; conditions: read-out: ACAT (liver) IC(50)
Experimental: Acyl-CoA; Cholesterol Acyl Transferase (ACAT)
Hamster liver and rat intestinal microsomes were prepared from tissue as described previously (Reference: (1980) J. Biol. Chem. 255, 9098) and used as a source of ACAT enzyme. The assay consisted of a 2.0 ml incubation containing 24 μM Oleoyl-CoA (0.05 μCi) in a 50 mM sodium phosphate, 2 mM DTT ph 7.4 buffer containing 0.25% BSA and 200 μg of microsomal protein. The assay was initiated by the addition of oleoyl-CoA. The reaction went for 5 min at 37° C. and was terminated by the addition of 8.0 ml of chloroform/methanol (2:1). […] The chloroform phase was taken to dryness and then spotted on a silica gel 60 TLC plate and developed in hexane/ethyl ether (9:1). The amount of cholesterol ester formed was determined by measuring the amount of radioactivity incorporated into the cholesterol oleate spot on the TLC plate with a Packard instaimager.

fecal bile acid (FBA) = assay: Rat gavage assay (fecal bile acid increase); assay type: in vivo
[3] = H14 cells, Table 5, read-out: IC50 uM (In vitro Taurocholate Cell Uptake)
[4] = Rattus norvegicus, read-out: % of Control Transport of TC in Rat Ileum
[5] = Table 6, read-out: TC-uptake (H14 cells) IC(50)
[6] = In Vitro Taurocholate Uptake, Table 10, read-out: Human TC IC50

Molecule `CCCC[C@]1(CC)CS(=O)(=O)c2ccccc2[C@@H](c2ccccc2)C1=O` (relative stereo) [Example 5b, trans-3-Butyl-3-ethyl-5-phenyl-2,3-dihydro-benzothiepin-(5H) 4-one-1,1-dioxide] has an IC50 (human IBAT; [3]) of 40 µM, an inhibition at 100 µM (H14 cells) of 0% and an activity at 500 µM [1, 4] of 72.9 ± 5.4%.
Work on `CCCC[C@@]1(CC)C[C@@H](c2ccccc2)c2ccccc2S(=O)(=O)C1` (relative stereo) [Example 9a, cis-3-Butyl-3-ethyl-5-phenyl-2,3,4,5-tetrahydrobenzothiepine-1,1-dioxide] yielded an IC50 (human IBAT; [3]) of 5 µM, an inhibition at 25 µM (H14 cells) of 0% and an activity at 100 µM ([1]; Rattus norvegicus) of 53.7%.
`CCCC[C@]1(CC)CS(=O)(=O)c2ccccc2[C@H](c2ccccc2)[C@@H]1O` [Example 6c, (3α,4α,5α) 3-Butyl-3-ethyl-4-hydroxy-5-phenyl-2,3,4,5-tetrahydrobenzothiepine-1,1-dioxide] gave an IC50 (human IBAT; [3]) of 2 µM, an inhibition at 100 µM (H14 cells) of 58.5% and an activity at 400 µM ([1]; Rattus norvegicus, 0.4 mM, read-out: % of Control Transport of TC in Rat Ileum) of 68.8%.
Work on `CCCC[C@]1(CC)CS(=O)(=O)c2ccccc2[C@@H](c2ccccc2)[C@H]1O` [Example 6d, (3α,4β,5β) 3-Butyl-3-ethyl-4-hydroxy-5-phenyl-2,3,4,5-tetrahydrobenzothiepine-1,1-dioxide] yielded an IC50 (human IBAT; [3]) of 0.6 µM, an IC50 (human IBAT; [5]) of 0.6 µM and an inhibition at 100 µM (H14 cells) of 77.7%. The activity at 150 µM ([1]; Rattus norvegicus, 0.15 mM, read-out: % of Control Transport of TC in Rat Ileum) was 30.2%, the activity at 500 µM [1, 4] was 16.1% and the EC50 [1] was 31000 nM. The IC50 [2] was 1500 nM.
`CCCC[C@]1(CC)CS(=O)(=O)c2cc(OC)ccc2[C@H](c2ccccc2)[C@@H]1O` [Example 26, (3α,4α,5α) 3-Butyl-3-ethyl-4-hydroxy-8-methoxy-5-phenyl-2,3,4,5-tetrahydrobenzothiepine-1,1-dioxide] showed an IC50 (human IBAT; [3]) of 2 µM, an inhibition at 25 µM (H14 cells) of 31% and an activity at 100 µM ([1]; Rattus norvegicus) of 87.9%.
`CCCC[C@]1(CC)CS(=O)(=O)c2ccc(NO)cc2[C@@H](c2ccccc2)[C@H]1O` [Example 38, (3α,4β,5β) 3-Butyl-3-ethyl-4-hydroxy-7-hydroxyamino-5-phenyl-2,3,4,5-tetrahydrobenzothiepine-1,1-dioxide] showed an IC50 (human IBAT; [3]) of 0.3 µM, an IC50 (human IBAT; [5]) of 0.3 µM and an inhibition at 5 µM (H14 cells; 5 μM) of 11%. The activity at 100 µM ([1]; Rattus norvegicus) was 20.6%, the EC50 [1] was 12000 nM and the IC50 [2] was 2000 nM. For the same molecule, the IC50 (ACAT) was 15000 nM.
With `CCCC[C@]1(CC)CS(=O)(=O)c2ccc(OC)cc2[C@@H](c2ccccc2)[C@H]1O` [Example 49, (3α,4β,5β) 3-Butyl-3-ethyl-4-hydroxy-7-methoxy-5-phenyl-2,3,4,5-tetrahydrobenzothiepine-1,1-dioxide] the IC50 (human IBAT; [3]) was 0.15 µM, the IC50 (human IBAT; [5]) was 0.1 µM and the inhibition at 200 µM (H14 cells; 200 μM) was 21%. It also gave an activity at 100 µM ([1]; Rattus norvegicus) of 21.2%, an EC50 [1] of 12000 nM and an IC50 (ACAT) of 6000 nM.
With `CC1(C)CS(=O)(=O)c2ccc(N)cc2[C@@H](c2ccccc2)[C@H]1O` [Example 288] the inhibition at 6.25 µM (H14 cells; @ 6.25 μM, read-out: Alanine Uptake Percent Inhibition @ μM) was 10% and the melting point was 185 to 186 °C.
With `CCCCC1(CCCC)CS(=O)(=O)c2ccc(N(C)C)cc2[C@@H](c2ccc(OCc3cccc(CCC(=O)O)n3)cc2)[C@H]1O` [Example 1430, (4R-cis)-6-[[4-[3,3-Dibutyl-7-(dimethylamino)-2,3,4,5-tetrahydro-4-hydroxy-1,1-dioxido-1-benzothiepin-5-yl]phenoxy]methyl]-2-pyridinepropanoic acid] the IC50 (human IBAT; [6]) was 0.003 µM, the “Delta (micromoles fecal bile acid per day)” value (fecal bile acid (FBA); dose 2 mg/kg/day) was 51.2 micromoles fecal bile acid per day and the “Delta (micromoles fecal bile acid per day)” value (fecal bile acid (FBA); dose .016 mg/kg/day) was −5.6 micromoles fecal bile acid per day. The “Delta (micromoles fecal bile acid per day)” value (fecal bile acid (FBA); dose .08 mg/kg/day) was 20.7 micromoles fecal bile acid per day, the “Delta (micromoles fecal bile acid per day)” value (fecal bile acid (FBA); dose .4 mg/kg/day) was 50.4 micromoles fecal bile acid per day and the melting point was 105 to 107 °C.
In the case of `CCCCC1(CCCC)CS(=O)(=O)c2ccc(N(C)C)cc2[C@@H](c2ccc(OCCOCCC(C(=O)O)C(=O)O)cc2)[C@H]1O` [Example 1432, (4S-cis)-[2-[2-[4-[3,3-Dibutyl-7-(dimethylamino)-2,3,4,5-tetrahydro-4-hydroxy-1,1-dioxido-1-benzothiepin-5-yl]phenoxy]ethoxy]ethyl]propanedioic acid], the IC50 (human IBAT; [6]) is reported as 0.026 µM, the “Delta (micromoles fecal bile acid per day)” value (fecal bile acid (FBA); dose 5 mg/kg/day) is reported as 36.2 micromoles fecal bile acid per day and the “Delta (micromoles fecal bile acid per day)” value (fecal bile acid (FBA); dose .04 mg/kg/day) is reported as 2.4 micromoles fecal bile acid per day. The “Delta (micromoles fecal bile acid per day)” value (fecal bile acid (FBA); dose .2 mg/kg/day) was 9.7 micromoles fecal bile acid per day and the melting point was 119.5 °C.
